How the values were obtained:
[1] = target: Cyclin-dependent kinase 3 (Homo sapiens, UniProt Q00526)
[2] = target: Cyclin-dependent kinase 5 (Homo sapiens, UniProt Q00535)
[3] = target: T1, Activin receptor type-1 (Homo sapiens, UniProt Q04771)
T1 sequence (Q04771 whole entry): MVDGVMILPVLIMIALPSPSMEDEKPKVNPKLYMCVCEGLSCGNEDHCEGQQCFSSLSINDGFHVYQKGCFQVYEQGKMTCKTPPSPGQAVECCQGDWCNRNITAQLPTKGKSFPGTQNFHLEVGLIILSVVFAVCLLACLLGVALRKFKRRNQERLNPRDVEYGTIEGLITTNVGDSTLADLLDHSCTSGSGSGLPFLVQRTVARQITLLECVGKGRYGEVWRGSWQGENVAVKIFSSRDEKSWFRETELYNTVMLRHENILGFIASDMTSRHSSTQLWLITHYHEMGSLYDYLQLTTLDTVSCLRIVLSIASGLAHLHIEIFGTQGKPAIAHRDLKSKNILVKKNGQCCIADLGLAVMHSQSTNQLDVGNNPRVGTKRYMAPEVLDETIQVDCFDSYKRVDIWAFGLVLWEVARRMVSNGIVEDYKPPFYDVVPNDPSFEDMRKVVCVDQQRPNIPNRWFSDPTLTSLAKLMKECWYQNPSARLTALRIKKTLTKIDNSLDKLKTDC

[4] = target: Serine/threonine-protein kinase pim-3 (Homo sapiens, UniProt Q86V86)
[5] = target: T2, Protein kinase C epsilon type (Homo sapiens, UniProt Q02156)
T2 sequence (Q02156 whole entry): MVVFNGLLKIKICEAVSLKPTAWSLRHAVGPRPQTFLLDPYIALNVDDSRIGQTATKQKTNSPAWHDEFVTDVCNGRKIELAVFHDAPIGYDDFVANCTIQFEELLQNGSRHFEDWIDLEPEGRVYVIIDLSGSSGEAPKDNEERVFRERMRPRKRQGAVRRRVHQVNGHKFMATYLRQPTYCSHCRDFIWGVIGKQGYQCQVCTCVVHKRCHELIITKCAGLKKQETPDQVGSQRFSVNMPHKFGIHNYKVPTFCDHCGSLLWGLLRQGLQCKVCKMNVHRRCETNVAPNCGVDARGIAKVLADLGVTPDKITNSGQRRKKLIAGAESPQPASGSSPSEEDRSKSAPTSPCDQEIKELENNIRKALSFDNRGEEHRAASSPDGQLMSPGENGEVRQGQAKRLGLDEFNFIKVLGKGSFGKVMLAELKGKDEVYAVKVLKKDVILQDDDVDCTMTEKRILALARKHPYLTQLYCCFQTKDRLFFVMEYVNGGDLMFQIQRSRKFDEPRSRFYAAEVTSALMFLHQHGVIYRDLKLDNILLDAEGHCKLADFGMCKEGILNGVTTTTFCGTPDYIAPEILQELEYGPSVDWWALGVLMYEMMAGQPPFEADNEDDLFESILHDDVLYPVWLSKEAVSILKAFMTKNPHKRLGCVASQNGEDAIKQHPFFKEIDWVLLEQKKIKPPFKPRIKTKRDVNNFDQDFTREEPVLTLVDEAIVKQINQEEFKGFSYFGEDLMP

[6] = target: Cyclin-dependent kinase 17 (Homo sapiens, UniProt Q00537)
[7] = target: T3, Tyrosine-protein kinase Tec (Homo sapiens, UniProt P42680)
T3 sequence (P42680 whole entry): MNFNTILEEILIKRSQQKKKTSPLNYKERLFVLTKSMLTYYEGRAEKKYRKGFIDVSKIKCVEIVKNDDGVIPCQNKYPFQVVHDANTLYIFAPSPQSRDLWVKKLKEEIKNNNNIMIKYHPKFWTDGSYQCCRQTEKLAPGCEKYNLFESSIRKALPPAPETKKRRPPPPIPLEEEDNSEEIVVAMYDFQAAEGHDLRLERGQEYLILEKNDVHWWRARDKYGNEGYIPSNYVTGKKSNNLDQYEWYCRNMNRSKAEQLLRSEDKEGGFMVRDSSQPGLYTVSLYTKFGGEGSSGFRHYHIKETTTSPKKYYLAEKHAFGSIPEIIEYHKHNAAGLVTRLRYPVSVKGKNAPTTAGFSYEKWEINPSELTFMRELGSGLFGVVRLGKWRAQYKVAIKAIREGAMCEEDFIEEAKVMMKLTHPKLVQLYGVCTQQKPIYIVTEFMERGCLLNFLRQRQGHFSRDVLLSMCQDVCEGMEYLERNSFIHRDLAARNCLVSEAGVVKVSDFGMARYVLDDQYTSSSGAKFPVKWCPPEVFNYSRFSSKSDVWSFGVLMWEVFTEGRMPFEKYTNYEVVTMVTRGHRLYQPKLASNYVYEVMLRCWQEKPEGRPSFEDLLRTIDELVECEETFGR

[8] = target: Activin receptor type-2B (Homo sapiens, UniProt Q13705)
[9] = target: T4, Serine/threonine-protein kinase Nek5 (Homo sapiens, UniProt Q6P3R8)
T4 sequence (Q6P3R8 whole entry): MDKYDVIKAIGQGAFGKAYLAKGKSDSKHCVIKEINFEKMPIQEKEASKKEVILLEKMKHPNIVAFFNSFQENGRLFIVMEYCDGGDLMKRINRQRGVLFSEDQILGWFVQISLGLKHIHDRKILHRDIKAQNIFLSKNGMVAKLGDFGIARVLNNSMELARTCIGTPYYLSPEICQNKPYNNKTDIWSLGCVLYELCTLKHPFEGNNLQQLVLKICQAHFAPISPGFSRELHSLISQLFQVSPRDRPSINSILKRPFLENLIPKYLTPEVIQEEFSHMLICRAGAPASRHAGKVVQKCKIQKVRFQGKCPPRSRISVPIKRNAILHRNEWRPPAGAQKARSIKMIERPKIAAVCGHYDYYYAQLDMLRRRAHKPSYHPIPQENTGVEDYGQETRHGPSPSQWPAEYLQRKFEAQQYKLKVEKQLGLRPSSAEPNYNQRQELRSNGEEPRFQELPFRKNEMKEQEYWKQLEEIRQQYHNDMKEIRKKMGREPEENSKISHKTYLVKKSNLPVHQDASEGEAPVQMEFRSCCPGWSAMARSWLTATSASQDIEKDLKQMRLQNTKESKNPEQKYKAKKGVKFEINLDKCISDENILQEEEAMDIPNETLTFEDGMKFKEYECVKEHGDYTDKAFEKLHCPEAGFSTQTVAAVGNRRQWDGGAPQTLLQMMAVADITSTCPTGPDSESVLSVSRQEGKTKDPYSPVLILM

[10] = target: Mitogen-activated protein kinase kinase kinase 10 (Homo sapiens, UniProt Q02779)
[11] = target: Tyrosine-protein kinase ABL1 (Homo sapiens, UniProt P00519)
Tyrosine-protein kinase ABL1, sequence (P00519 whole entry): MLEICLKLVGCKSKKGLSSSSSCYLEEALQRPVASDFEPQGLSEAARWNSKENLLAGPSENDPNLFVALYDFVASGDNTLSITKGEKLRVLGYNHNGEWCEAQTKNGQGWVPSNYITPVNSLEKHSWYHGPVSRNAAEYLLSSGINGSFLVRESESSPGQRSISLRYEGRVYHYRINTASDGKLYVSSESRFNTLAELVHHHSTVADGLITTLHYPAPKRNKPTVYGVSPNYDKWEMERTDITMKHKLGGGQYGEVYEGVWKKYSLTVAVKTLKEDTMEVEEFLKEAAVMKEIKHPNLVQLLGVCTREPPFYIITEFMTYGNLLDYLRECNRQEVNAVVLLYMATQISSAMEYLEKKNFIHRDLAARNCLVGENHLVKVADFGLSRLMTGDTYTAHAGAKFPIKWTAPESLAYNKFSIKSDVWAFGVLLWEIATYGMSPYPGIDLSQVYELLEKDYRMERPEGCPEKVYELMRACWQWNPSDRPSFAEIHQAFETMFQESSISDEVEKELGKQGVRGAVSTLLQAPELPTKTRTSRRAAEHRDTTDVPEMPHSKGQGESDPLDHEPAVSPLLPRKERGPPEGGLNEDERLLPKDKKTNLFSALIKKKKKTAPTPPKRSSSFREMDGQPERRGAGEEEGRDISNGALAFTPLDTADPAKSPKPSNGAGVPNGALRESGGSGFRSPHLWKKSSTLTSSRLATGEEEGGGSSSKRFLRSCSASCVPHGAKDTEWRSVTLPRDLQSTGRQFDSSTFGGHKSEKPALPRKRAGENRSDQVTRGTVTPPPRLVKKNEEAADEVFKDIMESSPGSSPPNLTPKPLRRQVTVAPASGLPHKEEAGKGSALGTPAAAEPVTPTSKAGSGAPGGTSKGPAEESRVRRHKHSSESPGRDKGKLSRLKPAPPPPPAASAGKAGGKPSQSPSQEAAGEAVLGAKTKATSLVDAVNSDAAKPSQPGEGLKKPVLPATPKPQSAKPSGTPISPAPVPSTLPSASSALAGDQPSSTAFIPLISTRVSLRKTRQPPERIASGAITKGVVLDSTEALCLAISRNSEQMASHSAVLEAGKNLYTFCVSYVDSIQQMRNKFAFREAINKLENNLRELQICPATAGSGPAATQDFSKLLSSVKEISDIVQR

Cyclin-dependent kinase 17, sequence (Q00537 whole entry): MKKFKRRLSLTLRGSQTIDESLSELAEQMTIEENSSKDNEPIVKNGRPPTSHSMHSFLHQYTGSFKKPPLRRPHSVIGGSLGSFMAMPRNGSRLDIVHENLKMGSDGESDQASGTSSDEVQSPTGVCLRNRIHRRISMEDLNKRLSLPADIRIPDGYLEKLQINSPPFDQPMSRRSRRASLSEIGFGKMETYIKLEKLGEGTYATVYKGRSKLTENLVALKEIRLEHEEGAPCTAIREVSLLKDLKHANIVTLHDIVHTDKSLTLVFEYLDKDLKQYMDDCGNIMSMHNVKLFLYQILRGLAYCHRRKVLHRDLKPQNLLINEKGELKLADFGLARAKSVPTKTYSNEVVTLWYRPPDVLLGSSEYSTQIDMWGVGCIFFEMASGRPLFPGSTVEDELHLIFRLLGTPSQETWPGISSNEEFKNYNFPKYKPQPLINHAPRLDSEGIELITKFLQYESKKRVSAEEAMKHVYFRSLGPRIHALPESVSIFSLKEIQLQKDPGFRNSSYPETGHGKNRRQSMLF
Cyclin-dependent kinase 5, sequence (Q00535 whole entry): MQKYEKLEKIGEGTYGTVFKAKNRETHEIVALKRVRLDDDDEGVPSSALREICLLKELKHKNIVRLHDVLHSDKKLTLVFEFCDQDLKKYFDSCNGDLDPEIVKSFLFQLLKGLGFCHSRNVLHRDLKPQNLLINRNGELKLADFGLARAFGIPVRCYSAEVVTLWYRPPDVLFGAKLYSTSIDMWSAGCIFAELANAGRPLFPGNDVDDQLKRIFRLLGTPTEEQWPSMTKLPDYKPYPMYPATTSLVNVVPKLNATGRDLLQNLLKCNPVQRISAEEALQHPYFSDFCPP
Mitogen-activated protein kinase kinase kinase 10, sequence (Q02779 whole entry): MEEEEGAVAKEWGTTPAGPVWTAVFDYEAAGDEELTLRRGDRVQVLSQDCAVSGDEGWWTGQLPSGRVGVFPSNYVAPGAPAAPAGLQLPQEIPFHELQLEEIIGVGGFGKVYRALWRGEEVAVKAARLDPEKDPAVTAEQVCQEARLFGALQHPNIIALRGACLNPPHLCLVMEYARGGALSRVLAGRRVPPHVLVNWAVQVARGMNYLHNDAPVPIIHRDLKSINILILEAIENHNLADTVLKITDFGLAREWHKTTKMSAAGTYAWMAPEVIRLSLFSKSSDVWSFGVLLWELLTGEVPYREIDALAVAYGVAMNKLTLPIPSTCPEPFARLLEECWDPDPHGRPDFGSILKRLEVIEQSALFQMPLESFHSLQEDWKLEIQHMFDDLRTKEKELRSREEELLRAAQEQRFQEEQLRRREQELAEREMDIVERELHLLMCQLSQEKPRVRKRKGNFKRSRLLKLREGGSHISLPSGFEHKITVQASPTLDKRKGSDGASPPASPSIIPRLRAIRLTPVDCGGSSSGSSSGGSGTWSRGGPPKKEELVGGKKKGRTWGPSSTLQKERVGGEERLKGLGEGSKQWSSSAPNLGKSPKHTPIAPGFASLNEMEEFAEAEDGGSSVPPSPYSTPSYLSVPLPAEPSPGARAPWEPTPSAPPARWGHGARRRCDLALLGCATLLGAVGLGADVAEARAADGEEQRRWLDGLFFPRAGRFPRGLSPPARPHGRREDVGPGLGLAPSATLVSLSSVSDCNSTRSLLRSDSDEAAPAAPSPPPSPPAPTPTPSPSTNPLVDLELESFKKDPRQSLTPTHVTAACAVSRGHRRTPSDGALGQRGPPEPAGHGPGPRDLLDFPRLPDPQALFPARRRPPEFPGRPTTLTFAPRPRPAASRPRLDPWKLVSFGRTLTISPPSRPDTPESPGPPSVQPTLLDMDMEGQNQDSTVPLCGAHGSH
Activin receptor type-2B, sequence (Q13705 whole entry): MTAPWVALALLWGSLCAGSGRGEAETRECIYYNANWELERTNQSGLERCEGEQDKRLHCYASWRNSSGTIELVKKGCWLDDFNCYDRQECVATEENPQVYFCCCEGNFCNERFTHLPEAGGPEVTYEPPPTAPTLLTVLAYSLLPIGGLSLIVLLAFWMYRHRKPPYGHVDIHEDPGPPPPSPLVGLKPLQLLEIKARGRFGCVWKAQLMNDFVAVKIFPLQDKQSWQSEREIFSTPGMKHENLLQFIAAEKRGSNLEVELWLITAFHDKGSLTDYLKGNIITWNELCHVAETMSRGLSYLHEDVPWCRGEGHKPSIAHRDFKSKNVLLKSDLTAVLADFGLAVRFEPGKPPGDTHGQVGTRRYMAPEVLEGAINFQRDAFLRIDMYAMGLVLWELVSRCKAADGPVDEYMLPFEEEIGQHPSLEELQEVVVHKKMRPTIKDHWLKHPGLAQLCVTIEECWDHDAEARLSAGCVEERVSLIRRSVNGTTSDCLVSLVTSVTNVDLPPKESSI
Cyclin-dependent kinase 3, sequence (Q00526 whole entry): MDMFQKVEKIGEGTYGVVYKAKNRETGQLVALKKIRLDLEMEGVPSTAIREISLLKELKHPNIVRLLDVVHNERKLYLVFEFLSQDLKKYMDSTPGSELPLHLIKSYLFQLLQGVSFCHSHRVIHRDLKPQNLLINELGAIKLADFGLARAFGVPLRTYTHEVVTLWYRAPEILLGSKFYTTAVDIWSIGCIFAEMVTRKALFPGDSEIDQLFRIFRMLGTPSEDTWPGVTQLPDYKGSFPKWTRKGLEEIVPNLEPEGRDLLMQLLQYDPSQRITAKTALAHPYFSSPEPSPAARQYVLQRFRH

Row | SMILES | Kd [1] | Kd [2] | Kd [3] | Kd [4] | Kd [5] | Kd [6] | Kd [7] | Kd [8] | Kd [9] | Kd [10] | Kd [11]
1 | CCN1CCN(Cc2ccc(NC(=O)Nc3ccc(Oc4cc(NC)ncn4)cc3)cc2C(F)(F)F)CC1 [AST-487] | 0.082 µM | 1 µM | – | – | – | – | – | – | – | – | –
2 | COCC(=O)NC/C=C/c1ccc2ncnc(Nc3ccc(Oc4ccc(C)nc4)c(C)c3)c2c1 [CP-724714] | > 10 µM | > 10 µM | > 10 µM | > 10 µM | > 10 µM | > 10 µM | > 10 µM | > 10 µM | > 10 µM | > 10 µM | > 10 µM
3 | Nc1nc(Nc2ccc(S(N)(=O)=O)cc2)nn1C(=O)c1c(F)cccc1F [JNJ-7706621] | – | – | – | > 10 µM | > 10 µM | – | – | 5.9 µM | > 10 µM | – | –
4 | CCOc1cc2ncc(C#N)c(Nc3ccc(F)c(Cl)c3)c2cc1NC(=O)/C=C/CN(C)C [PELITINIB] | > 10 µM | > 10 µM | > 10 µM | > 10 µM | > 10 µM | > 10 µM | > 10 µM | > 10 µM | > 10 µM | > 10 µM | –
5 | Oc1ccc(-c2nc(-c3ccncc3)c(-c3ccc(F)cc3)[nH]2)cc1 [SB-202190] | > 10 µM | > 10 µM | > 10 µM | > 10 µM | > 10 µM | > 10 µM | > 10 µM | 4.8 µM | > 10 µM | > 10 µM | > 10 µM
6 | NC(=O)c1ccc(-c2nc(-c3ccc4c(c3)OCO4)c(-c3ccccn3)[nH]2)cc1 [SB-431542] | > 10 µM | > 10 µM | > 10 µM | > 10 µM | > 10 µM | > 10 µM | > 10 µM | > 10 µM | > 10 µM | > 10 µM | > 10 µM
